Results published in US20100305101A1, “Leptin genotype and ß-adrenergic agonists” (priority 2009, published 2010).
Counter-ions that a name gives are not always drawn.

Tests used:
[1] = Feedlot trial of leptin Arg25Cys genotype x Zilpaterol Hydrochloride administration (Cactus Research); type: in vivo, cattle; settings: for daily dry matter intake (DDMI) during ZH treatment: last 24 days on feed; for % USDA stamped quality grade Choice+Prime, effect of ZH administration: vs no ZH
Experimental: In a trial completed at a private research facility in Texas, USA (Cactus Research, Amarillo Tex.) leptin genotype was assessed for potential interaction with Zilpaterol Hydrochloride (ZH). The trial consisted of 4,279 animals and occurred from summer of 2008 and carried through to spring of 2009. The trial was conducted as a randomized complete block design with approximately 90 animals being placed into pens based on leptin genotype and randomly assigned to drug treatment with pen being the experimental unit. Treatment structure was a 3×2 factorial including three letting genotypes (CC, CT and TT) and two drug treatments (zero control and drug treatment). Pens were blocked by time, specifically arrival date of the animal to the feedlot. Each block was slaughtered on the same day, and the complete process replicated eight times resulting in eight blocks. Below is a schematic summary of the trial design.
Upon arrival into the feedlot animals were individually weighed and back fat was measured using ultrasound. These measured were also taken 65, days on feed, and then one week prior to ZH treatment and 2-3 days prior to slaughter. All cattle were slaughtered and USDA carcass data were measured. Growth data were fitted to a non-linear growth model.
Backfat was measure by ultrasound at: • 1) Arrival • 2) 65 days on feed • 3) 1 week prior to zilpaterol initiation • 4) 2-3 days prior to slaughter 8 total blocks, 6 treatment pens per block, and 4,179 head total (avg initial wt=875 lbs) Within blocks, all treatments were killed on the same day (avg days on feed=129

[2] = RH 300 mg/steer/day, ZH 6 mg/steer/day; cited from earlier work
B-AR's = settings: swine; within the first 7 days of treatment with RH; cited from earlier work

Row | SMILES | hot carcass weight (HCW) gain response to ZH administration ([1]; CC and CT genotype animals) | % empty body fat (% EBF) change when fed ZH ([1]; CC genotype animals) | marbling score, effect of ZH administration ([1]; CC genotype animals) | daily dry matter intake (DDMI) during ZH treatment ([1]; CC genotype animals) | % USDA stamped quality grade Choice+Prime, effect of ZH administration ([1]; CC genotype animals) | daily dry matter intake (DDMI) during ZH treatment ([1]; CT and TT genotype animals) | marbling score, effect of ZH administration ([1]; TT and CT genotype animals) | rib eye area (REA) gain with ZH administration ([1]; TT and CT genotype animals) [square inches] | % USDA stamped quality grade Choice+Prime, effect of ZH administration ([1]; TT and CT genotype animals) | % empty body fat (% EBF) change when fed ZH ([1]; TT genotype animals) | hot carcass weight (HCW) gain response to ZH administration ([1]; TT genotype animals) | LM (Longissimus Muscle) area [2] | sheer force and toughness of the muscle tissue [2] | B-AR down-regulation in adipose tissue (B-AR's) [%]
1 | CC(C)N[C@@H]1CCn2c(=O)[nH]c3cccc(c32)[C@H]1O (racemic) [ZH, Zilpaterol Hydrochloride] | largest response | smallest reduction | slight reduction | no change | unaffected | significant reduction | much greater reduction | 1.4 | significant reductions | largest reduction | lowest response | larger | increased | –
2 | CC(CCc1ccc(O)cc1)NCC(O)c1ccc(O)cc1 (stereo not shown) [RH, Ractopamine Hydrochloride] | – | – | – | – | – | – | – | – | – | – | – | no effect | increased | ~50
